Data published in the supplement of paper PMC11208160.

Assay: recombinant barcode read abundance after kanamycin selection (control-corrected) (log10(CPM+1)); higher = more efficient recombination; sequences stand for … in AGTGCAGAGAAAATCGGCCAGTTTTCTCTGCCTGCAGTCCGCATGCCGT…AGATTTATGCAGCGGACTGCCTTTCTCCCAAAGTGATAAACCGGACAGTATCATGGACCGGTTTTCCCGGTAATCCGTATTTGCAAGGTTGGTTTCACT; site = the 11-nt target
Method in brief: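 Oligos holding a promoter, target, barcode and the J23119-driven first 104 bases of the bridge RNA were Gibson-cloned into a vector that supplied the other 73 bp plus a T7-inducible recombinase. This library was co-electroporated with a donor plasmid into E. coli. Two replicates went on chloramphenicol/ampicillin LB agar (control) and two on chloramphenicol/ampicillin/kanamycin with 0.1 mM IPTG. Recombination efficiency is read from averaged, control-corrected barcode counts per million at recombinant junctions, reported as log10(CPM+1).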
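Also: IS621 recombinase and bridge RNA in Escherichia coli cells.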

Row | Sequence | recombinant barcode read abundance (log10)
1 | GTTGGTCCTTGGGTTCTAACCTGTTGCGT (site GTGAGTCCTAC) | 0.136
2 | GTTGGTCCTTGGGTTCTAACCTGTTGCGT (site GTTGGTCCTAC) | 2.76
3 | GTTTAAACTTGGGTTCTAACCTGTTGCCT (site GTTTAAACTAG) | 0.809
4 | GTTTAAACTTGGGTTCTAACCTGTTGCCT (site GTTTACGCTAG) | 0.0493
5 | GTTTACGCTTGGGTTCTAACCTGTTGCCT (site GTTTAAACTAG) | 0.0797
6 | GTTTACGCTTGGGTTCTAACCTGTTGCCT (site GTTTACGCTAG) | 1.96
7 | GTTTCTACTTGGGTTCTAACCTGTTGCTA (site ATTTCTACTTC) | 0.128
8 | GTTTCTACTTGGGTTCTAACCTGTTGCTA (site GTTTCTACTTA) | 0.0482
9 | GTTTCTTCTTGGGTTCTAACCTGTTGCCT (site GATTCTTCTAG) | 0.304
10 | GTTTCTTCTTGGGTTCTAACCTGTTGCCT (site GCTTCTTCTAG) | 0.0824
11 | GTTTCTTCTTGGGTTCTAACCTGTTGCCT (site GGTTCTTCTAG) | 0.171
12 | GTTTCTTCTTGGGTTCTAACCTGTTGCCT (site GTTTCTTCTAG) | 0.0189
13 | GTTTGATCTTGGGTTCTAACCTGTTGCCT (site GTTTGATCTAG) | 0.172
14 | GTTTGATCTTGGGTTCTAACCTGTTGCCT (site GTTTGCTCTAG) | 0.029
15 | GTTTGATCTTGGGTTCTAACCTGTTGCCT (site GTTTGGTCTAG) | 0.212
16 | GTTTGATCTTGGGTTCTAACCTGTTGCCT (site GTTTGTTCTAG) | 0

Row | Sequence | recombinant barcode read abundance (log10)
17 | GTTTGCCCTTGGGTTCTAACCTGTTGCTT (site GTTTGACCTAA) | 0.0376
18 | GTTTGCCCTTGGGTTCTAACCTGTTGCTT (site GTTTGCCCTAA) | 0.0681
19 | GTTTGCCCTTGGGTTCTAACCTGTTGCTT (site GTTTGGCCTAA) | 0.0442
20 | GTTTGCCCTTGGGTTCTAACCTGTTGCTT (site GTTTGTCCTAA) | 0.164
21 | GTTTGCTCTTGGGTTCTAACCTGTTGCCT (site GTTTGATCTAG) | 0.0882
22 | GTTTGCTCTTGGGTTCTAACCTGTTGCCT (site GTTTGCTCTAG) | 0.635
23 | GTTTGCTCTTGGGTTCTAACCTGTTGCCT (site GTTTGGTCTAG) | 0.416
24 | GTTTGCTCTTGGGTTCTAACCTGTTGCCT (site GTTTGTTCTAG) | 0.115
25 | GTTTGTCCTTGGGTTCTAACCTGTTGCTT (site GTTTGACCTAA) | 0.178
26 | GTTTGTCCTTGGGTTCTAACCTGTTGCTT (site GTTTGCCCTAA) | 0.0342
27 | GTTTGTCCTTGGGTTCTAACCTGTTGCTT (site GTTTGGCCTAA) | 0.644
28 | GTTTGTCCTTGGGTTCTAACCTGTTGCTT (site GTTTGTCCTAA) | 0.048
29 | TAAAGGCCTTGGGTTCTAACCTGTTGCTA (site CAAAGGTCTTA) | 0.218
30 | TAAAGGCCTTGGGTTCTAACCTGTTGCTA (site TAAAGGCCTTA) | 0.159
31 | TAAAGGGCTTGGGTTCTAACCTGTTGCCT (site TAAAGGGCTAG) | 0.4
32 | TAAAGGGCTTGGGTTCTAACCTGTTGCCT (site TAACGGGCTCG) | 0.0341
